The values below come from the OPERA property sets (Mansouri et al. 2018).

Converted amounts (≈) assume the structure as drawn.

By solubility is commonly meant the dissolved amount per volume that the medium holds. High values mean a readily soluble substance, low ones a poorly soluble substance. A word on the logP: it is a log measure of how a compound divides between an organic and an aqueous phase. A higher logP goes with a more lipophilic compound.

As to `CCC1(CC2(c3cccc(Cl)c3)CO2)C(=O)c2ccccc2C1=O` (stereo not drawn), the solubility (25 °C) was found to be 41.1 µM (≈ 14 µg/mL).
For `CCOP(=S)(OCC)Oc1ncn(-c2ccccc2)n1`, the logP was found to be 3.34. For the same molecule, the solubility (pH 7.0, 20 °C) came out at 99.2 µM (≈ 31.1 µg/mL).
Where the note is “pH 5.1, 25 °C”, `Cc1cc(C)nc(NC(=O)NS(=O)(=O)c2ccccc2C(=O)OC2COC2)n1` returned a solubility of 128 µM (≈ 52 µg/mL).
Consider `CCOCOc1ccc(C(=O)Nc2cccc(Cl)c2Cl)cc1`, for which the logP worked out at 4.3. Under “25 °C”, this molecule came in with a solubility of 2.7 µM (≈ 0.92 µg/mL).
`CCOC(=O)Cn1c(=O)sc2cccc(Cl)c21` showed a solubility (20 °C) of 173 µM (≈ 47 µg/mL).
As to `C#CC(OC(=O)C1C(C=C(C)C)C1(C)C)/C(C)=C/CC` (stereo not drawn), the solubility (25 °C) amounted to 0.404 µM (≈ 0.111 µg/mL).
For `N#Cc1c(Cl)cccc1Cl`, the solubility (20 °C) is 105 µM (≈ 18 µg/mL).
As to `CCCN(CCC)c1c([N+](=O)[O-])cc(C(F)(F)F)cc1[N+](=O)[O-]`, under “pH 5.0, 25 °C”, the solubility is 0.701 µM (≈ 0.235 µg/mL).
`CCCCOCC(C)OC(=O)COc1nc(F)c(Cl)c(N)c1Cl` (stereo not drawn) yielded a logP of 4.17.
In turn, `Fc1cccc(F)c1-c1nnc(-c2ccccc2Cl)nn1` gave a logP of 3.3.
`CC[C@H]1O[C@]2(CC[C@@H]1C)C[C@@H]1C[C@@H](CC=C(C)C[C@@H](C)C=CC=C3CO[C@@H]4[C@H](O)C(C)=C[C@@H](C(=O)O1)[C@]34O)O2` had a logP of 5.9. The molecule further returned a solubility (20 °C) of 13.3 µM (≈ 7.2 µg/mL).
The matching figures for `COCCN(C(=O)CCl)c1c(C)cccc1C`: 2.17 and 8590 µM (≈ 2200 µg/mL).
Molecule `COc1ccc(-c2ccccc2)cc1NNC(=O)OC(C)C` came in with a solubility (20 °C) of 12.5 µM (≈ 3.76 µg/mL).
In the case of `C=CCC1=C(C)C(OC(=O)C2C(C=C(C)C)C2(C)C)CC1=O` (stereo not drawn), under “25 °C”, the solubility stood at 15.2 µM (≈ 4.6 µg/mL).
